From ChEMBL document CHEMBL1135314, “Synthesis of tag introducible (3-trifluoromethyl)phenyldiazirine based photoreactive phenylalanine” (Bioorg Med Chem Lett, 2002)

Assay: Half life of compound was determined.
Type: ADME

Row | half-life | Compound
1 | 2.6 min | N[C@@H](Cc1ccc(C2(C(F)(F)F)N=N2)cc1OCCNC(=O)CCCC[C@@H]1SC[C@@H]2NC(=O)N[C@@H]21)C(=O)O
2 | 2.3 min | N[C@@H](Cc1ccc(C2(C(F)(F)F)N=N2)cc1OCCOCCOCCNC(=O)CCCC[C@@H]1SC[C@@H]2NC(=O)N[C@@H]21)C(=O)O
